Experiments:
naïve CD4^+ T cells = experiment: Naive CD4+ T cells with anti-CD3/anti-CD28 coated beads; assay type: cell-based, mice
From the text: FIG. 4A-4K: Effect of inosine on T cell differentiation and dependency on classical dendritic cells of ICB therapy efficacy. (a) Scatter plot of untargeted metabolomics data in the serum of anti-CTLA-4 treated, tumor-bearing B.p. monocolonized compared to C.sp. monocolonized and germ-free (GF) mice. Grey circles or dotted grey circles depict inosine or inosine fragments/adducts, respectively. […] (c) Naïve CD4^+ T cells were co-cultured with bone marrow derived dendritic cells and IFN-γ. Quantification of T-bet^+CD3ε^+CD4^+ T cells 48 hours after co-culture in the presence or absence of inosine, A2A receptor inhibitor (ZM241385), cell permeable cAMP (db-cAMP) and protein kinase A inhibitor (RP-8-CPT-CAMPS). (d) Same as (c) without IFN-γ. (e) Representative plot and quantification (left and right panel) of phospho-CREB (Ser133) levels in naïve CD4^+ T cells cultured with anti-CD3/anti-CD28 coated beads for 1 hour in the presence or absence of inosine. (f) Schematic overview of experimental setup to deplete classical dendritic cells during MC38 tumor challenge and anti-CTLA-4 treatment. Intratumoral (g) frequency of CD8^+ T cells (h) IFN-γ^+CD8^+ T cells. (i and j) same as (g and h), but CD4^+ T cells and (k) tumor weight at […]. Data are mean±SEM and pooled from two individual experiments (a-b) n=5-8 samples/group (c-e) 10-15 biological replicates/group (f-k) 10 mice/group. *, P<0.05; **, P<0.01; ***, P<0.001; ****, P<0.0001
FIG. 16A-16J: Context dependent effect of inosine on Th1 T cell differentiation. (a) Naïve CD4^+ T cells were co-cultured with bone marrow derived dendritic cells without IFN-γ. Quantification of T-bet^+CD3e^+CD4^+ T cells 48 hours after co-culture in the presence or absence of inosine and anti-CTLA-4, as indicated. (b) Naïve CD4^+ T cells were cultured anti-CD3/anti-CD28 coated beads at a ratio of 1:1 without IFN-γ for 48 hours. Representative plot and quantification of IL12Rβ2 surface expression on CD4^+ T cells in the presence or absence of inosine (left and right panel). (c) Quantification of T-bet^+CD3e^+CD4^+ T cells 48 hours after co-culture in the presence or absence of inosine, db-cAMP and anti-CTLA-4 as indicated. (d) Naïve, A2AR-deficient CD4^+ T cells were cultured with anti-CD3/anti-CD28 coated beads at a ratio of 1:1 without IFN-γ. Quantification of T-bet^+CD3e^+CD4^+ T cells 48 hours after co-culture in the presence or absence of inosine or db-cAMP (e) Representative plot and quantification (left and right panel) of pCREB expression of anti-CD3/anti-CD28 bead co-cultured CD4^+ T cells in the presence or absence of inosine or db-cAMP 1 hour after stimulation. Analysis through flow cytometry. (f and g) Naïve, wild type CD4^+ T cells were cultured with anti-CD3/anti-CD28 coated beads at a ratio of 1:1. Il12rb2 and Ifng gene transcripts (normalized to Gapdh) were evaluated 24 and 48 hours following inosine (1 mM) stimulation. Expression was normalized to cells treated with medium. Analysis through quantitative PCR assay (h) Naïve CD4^+ T cells were cultured with anti-CD3/anti-CD28 coated beads at a ratio of 1:1 without IFN-γ for 24 hours. Then inosine or vehicle was added at the indicated concentrations for another 48 hours before T cell differentiation and activation was assessed. (i) Adenosine concentrations in the duodenal-, jejunal- or cecal content of B.p. monocolonized mice and in the serum of B.p. or C.sp. monocolonized anti-CTLA-4 treated mice. (j) Naïve CD4^+ T cells were cultured with anti-CD3/anti-CD28 coated beads at a ratio of 1:1 without IFN-γ for 24 hours. Adenosine or was added then in the indicated concentrations for another 48 hours followed by T cell differentiation and activation was assessed through flow cytometry. […]

MC38 tumor cells = experiment: MC38 tumors in GF Rag1-deficient mice receiving WT or A2AR-deficient T cells, inosine + anti-CTLA-4 + CpG; assay type: in vivo; details: WT vs A2AR-deficient T cells
Procedure: FIG. 5A-5L: Inosine promotes Th1 activation and anti-tumor immunity. (a) Schematic overview of experimental setup to assess the effect of inosine on Th1 activation in vivo. (b, c) Representative dot plots and quantification (left and right panel respectively) of T-bet^+IFN-γ^+CD3ε^+ (b) CD8^+ or (c) CD4^+ T cells in the MLN. (d) Schematic overview of experimental setup to assess the effect of inosine on anti-tumor immunity. Upon palpable tumors, mice were treated with 100 μg anti-CTLA-4 i.p. (5 times every 72 hours) and in some groups 20 μg CpG i.p. (5 times every 72 hours). In addition, inosine (300 mg/KG/BW) or PBS was given daily orally (O), through gavage or systemically (S) through i.p. injection. (e) Tumor weight and quantification of IFN-γ^+ cells amongst (f) CD4^+ or (g) CD8^+ cells are shown. (h). Schematic overview to assess the requirement of A2AR signaling for inosine-induced anti-tumor immunity. 1×10^6 MC38 cells (s.c.) and WT or A2AR-deficient 1×10^7 T cells (i.v. 6×10^6 CD4^+ and 4×10^6 CD8^+ cells) were injected. Upon palpable tumors, mice were treated with 100 μg anti-CTLA-4, 20 μg CpG (4 times every 72 hours, both i.p.) and inosine (daily, 300 mg/KG/BW, through gavage). (i) Pictures of tumors are shown at day 20. scale bars: 1 cm. (j) Tumor weight and quantification of IFN-γ^+ in (k) CD8^+ or (l) CD4^+ cells in the tumor are shown. Data are mean±SEM and pooled from two individual experiments (a-l) 10-11 mice/group. *, P<0.05; **, P<0.01; ***, P<0.001.
To evaluate the effect of inosine on Th1 activation, mice received 30 μg CpG, […] EndoFit Ovalbumin (both Invivogen) and 2 μg OVA323-339 (Sigma) i.p. and 24 hours later mice received 300 mg/kg/BW inosine or PBS as a control through i.p. injection. T cell differentiation was assessed 48 hours later. To assess the impact of inosine on tumor development during ICB therapy 1×10^6 cancer cells were injected subcutaneously (s.c.) in the flank of germ-free mice. […]

OC[C@H]1O[C@@H](n2cnc3c(O)ncnc32)[C@H](O)[C@@H]1O [inosine]
phosphorylation of CREB (Ser133) (naïve CD4^+ T cells; 1 hour): led to phosphorylation | Th1 differentiation (naïve CD4^+ T cells; bead-activated naïve T cells, no DCs): enhanced Th1 differentiation, even in the absence of IFN-γ | Il12rb2 and Ifng gene transcription (naïve CD4^+ T cells; inosine 1 mM, 24 and 48 hours, quantitative PCR): sustained upregulation | Th1 activation, inosine dose response (naïve CD4^+ T cells; physiological concentrations observed in sera of B.p. but not C.sp. monocolonized mice): sufficient to induce Th1 activation | IL12Rβ2 surface expression (naïve CD4^+ T cells; without IFN-γ, 48 hours): upregulation of IL12Rβ2 | IFN-γ production within tumors (MC38 tumor cells): WT but not A2AR-deficient T cells displayed increased IFN-γ production within tumors | tumor weights (MC38 tumor cells): only GF mice receiving WT T cells showed reduced tumor weights | anti-CTLA-4/CpG-mediated anti-tumor immunity (MC38 tumor cells; inosine oral): enhanced anti-CTLA-4/CpG-mediated anti-tumor immunity in animals that received WT but not A2AR-deficient T cells
